# Test results from article PMC6718548, “Tau pathology reduction with SM07883, a novel, potent, and selective oral DYRK1A inhibitor: A potential therapeutic for Alzheimer's disease” (Aging Cell, 2019).
# Read-outs that look alike come from different tables or passages of the source.
# Columns and labels:
# [1] = test system: phosphorylated tau at Thr212 in HEK293T cells; test: pTau Thr212 sandwich ELISA in double-transfected HEK293T cells; assay type: cell-based, human; details: HEK293T co-transfected with DYRK1A and MAPT, overnight treatment, single lot, read-out: Cell assay EC50 pTau at Thr212
# From the text: For the generation of the DYRK1A- and MAPT-overexpressing cells, HEK293T cells were transiently transfected with DYRK1A and MAPT genes. Specifically, expression vectors pCMV6-XL4 and pCMV6-Entry expressing DYRK1A and MAPT, alongside an empty vector control (pCI, OriGene, Catalog #SC314641 and RC216166, respectively; Promega, Catalog #E1731) and the material was amplified and purified using a custom MaxiPrep service (GENEWIZ, South Plainfield, NJ).
# (§1) For ELISA assays, native SH-SY5Y cells, or transiently double-transfected HEK293T cells were dissociated by treatment with trypsin-EDTA and seeded in 96-well flat-bottom cell culturing plate before administration of 3-fold serial dilution of SM07883 overnight.
# (§2) Following compound treatment, cells were washed and lysed with 1x RIPA buffer containing phosphatase and protease inhibitors transferred to 96-well V-bottom collection plates for centrifugation and removal of insoluble material.
# The pTau Thr212 ELISA 96-well flat-bottom plates, were coated with anti-HT7 capture antibody (Catalog MN1000, Thermo Fisher, Waltham, […]) diluted 1:300 in 1X PBS at 4°C. After overnight incubation, coated plates were washed with 1× PBS containing 0.05% Tween-20 and blocked for 1hr 2% BSA (A7030-50G, Sigma-Aldrich, St. Louis, MO), then washed prior to sample loading.
# For the pTau Thr212 sandwich ELISA, cell lysates were directly transferred to the anti-HT7 capture, antibody-coated, and BSA-blocked ELISA plates for 2hrs. Supernatant was then removed, and plates were washed with 1× PBS-0.05% Tween-20, followed by addition of 100 µL per well anti-phosphorylated tau Thr212 antibody (Catalog 44-740G, Thermo Fisher) diluted 1:200 in 1× PBS for 2hrs. Plates were washed and probed with an anti-rabbit/HRP conjugate (Cell Signaling Technology, 7074S) for 1hr then washed before a TMB substrate solution (Catalog N301, Thermo Fisher) was added. When a deep blue color was observed, 100 µL per well of stop solution (Catalog N600, Thermo Fisher) was added.
# (§3) Colorimetric detection of pT212Tau or pS396Tau signal was read at 450 nm using the Cytation 3 Cell Imaging Multi-Mode Reader (BioTek, Winooski, VT). The signal was used to plot, draw the curve fitting, and determine the EC50 value for SM07883 in Prism 7 (GraphPad, La Jolla, CA).
# [2] = test system: phosphorylated tau at Ser396 in SH-SY5Y cells; test: pSer396Tau ELISA in SH-SY5Y neuroblastoma cells; assay type: cell-based, human; details: overnight (16 hr) treatment, single lot, read-out: Cell assay EC50 pTau at Ser396
# From the text: as §1, §2, §3
# DYRK1a = biological target: T1, DYRK1a (Homo sapiens, UniProt Q13627); test: DYRK1A kinase assay (Z-Lyte / SelectScreen IC50); assay type: biochemical; details: Suppl. Table 2 comparison with commercially available inhibitors
# T1 construct: purchased Thermo Fisher Scientific
# GSK‐3β = biological target: T2, GSK‐3β (Homo sapiens, UniProt P49841); test: Kinase IC50 (SelectScreen); assay type: biochemical; details: Suppl. Table 2 comparison with commercially available inhibitors; read-out: Kinase IC50 GSK-3b
# T2 construct: purchased Thermo Fisher SelectScreen service
# T2 sequence (P49841 whole entry): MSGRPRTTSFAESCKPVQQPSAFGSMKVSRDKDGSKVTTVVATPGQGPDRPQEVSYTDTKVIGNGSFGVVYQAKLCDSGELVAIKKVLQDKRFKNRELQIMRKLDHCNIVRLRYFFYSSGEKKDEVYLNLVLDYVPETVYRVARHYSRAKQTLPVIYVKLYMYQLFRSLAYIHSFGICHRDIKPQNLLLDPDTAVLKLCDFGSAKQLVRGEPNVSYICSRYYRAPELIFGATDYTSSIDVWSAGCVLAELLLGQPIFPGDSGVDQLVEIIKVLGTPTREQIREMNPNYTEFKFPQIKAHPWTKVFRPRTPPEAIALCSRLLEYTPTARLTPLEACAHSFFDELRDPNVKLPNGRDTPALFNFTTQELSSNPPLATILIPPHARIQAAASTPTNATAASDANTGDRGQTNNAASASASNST
EC50 ([2]; Homo sapiens) [µM],IC50 (DYRK1a) [µM],IC50 (GSK‐3β) [µM],EC50 [2] [µM],Structure (SMILES),"EC50 ([1]; Homo sapiens, HEK-293T) [µM]",EC50 [1] [µM]
,0.083,> 10,2.5,COC(=N)c1nc2ccc3ncnc(Nc4ccc(Cl)cc4Cl)c3c2s1 [EHT-5372],,3.8
,,> 10,> 10,CCN1/C(=C/C(C)=O)Sc2ccc(O)cc21 [INDY],,> 10
,,1.1,1.4,O=C1NC(Nc2ccccc2)=N/C1=C\c1ccc2c(c1)OCO2 [Leucettine L41],,0.072
,,> 10,> 10,CCN1/C(=C/C(C)=O)Sc2ccc(OC)cc21 [TG003],,> 10
> 10,,,,O=c1sn(-c2cccc3ccccc23)c(=O)n1Cc1ccccc1 [Tideglusib],> 10,

# Further lines, the compound ahead of its results:
Structure (SMILES),EC50 ([2]; Homo sapiens) [µM],IC50 (DYRK1a) [µM],IC50 (GSK‐3β) [µM],EC50 [2] [µM],"EC50 ([1]; Homo sapiens, HEK-293T) [µM]",EC50 [1] [µM]
Cc1c[nH]c(-c2cnc(NCCNc3ccc(C#N)cn3)nc2-c2ccc(Cl)cc2Cl)n1 [CHIR-99021],0.252,,,,> 10,
O=C(O)c1ccc2c(c1)nc(Nc1cccc(Cl)c1)c1ccncc12 [CX-4945],5.2,,,,0.428,
"Cc1ccc(C(=O)Nc2c[nH]nc2C(=O)NCCCOC(C)C)cn1 [Compound A, 6-Methyl-N-[3-[[3-(1-methylethoxy)propyl]carbamoyl]-1H-pyrazol-4-yl]pyridine-3-carboxamide]",0.006,0.761,,,> 10,
"O=C(O[C@@H]1Cc2c(O)cc(O)cc2O[C@@H]1c1cc(O)c(O)c(O)c1)c1cc(O)c(O)c(O)c1 [EGCG, Epigallocatechin gallate]",,1.4,> 10,> 10,,> 10
COc1ccc2c(c1)[nH]c1c(C)nccc12 [Harmine],> 10,,,,0.233,
